The values below come from PubChem BioAssay (NCI).

Where “and” joins values, the source holds several entries; their conditions need not be identical. Equal entries are not always repeated.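 Assay format: 96-well plates, 48-hour exposure. GI50 = concentration required for 50% inhibition of growth. TGI marks complete inhibition of growth.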 Where only a bound is given, the exact number is not on record here.

Assay in all cases: NCI-60 cell line screen, 48 h
For assay [1], the system named is PC-3 prostate.
In assay [2] the test system is SR leukemia.
For assay [3], the system named is SNB-75 CNS.
The test system of assay [4] is SK-MEL-2 melanoma.
Assay [5] has as its system MALME-3M melanoma.
In assay [6] the test system is K-562 leukemia.
Assay [7] relates to HCT-116 colon.
Assay [8] concerns UACC-257 melanoma.
The subject of assay [9] is TK-10 renal.
Assay [10] relates to CAKI-1 renal.

Regarding `CN1CCN(CCOc2ccc(-c3cnc4c(-c5ccc(F)cc5)cnn4c3)cc2)CC1`, the GI50 was 1.7 µM in assay [1]; 2.07 µM in assay [2]; 1.34 µM in assay [3]; 2.09 µM in [4]; 1.62 µM in assay [5]; 0.365 µM in assay [6]. Besides, the GI50 is 1.55 µM in assay [7], 2.11 µM in [8], 1.82 µM in [9] and 1.52 µM in assay [10]. The TGI in assay [1] stood at 3.82 µM; in [2], 10.9 µM; in assay [3] it was 3.32 µM; in assay [4], 4.31 µM; in assay [5], 3.13 µM; in assay [6], 2.3 µM. For the same compound, the TGI is 3.05 µM in assay [7], 4.42 µM in [8], 3.5 µM in [9] and 2.89 µM in assay [10].

Regarding `Cc1cc(S(=O)(=O)Nc2nc3cc(Cl)ccc3o2)c(SCc2ccccc2)cc1Cl`, the GI50 was 21.5 µM in [1]; 46 µM in assay [2]; 26.1 µM in [3]; 20.5 µM in assay [4]; 19.3 µM in [5]; 46.2 µM in assay [6]. For the same compound, the GI50 in assay [7] was 18.7 µM; in [8], 18.4 µM; in assay [9], 25.8 µM; in assay [10] it was 22.9 µM. The TGI in assay [1] was 43.5 µM; in assay [2] it was greater than 100 µM; in assay [3], 62.2 µM; in assay [4], 43.1 µM; in assay [5] it was 48.5 µM; in assay [6], greater than 100 µM. The TGI in assay [7] was determined as 42.7 µM; in [8], 38.4 µM; in assay [9], 55.1 µM; in [10], 49 µM.

Consider `COC(=O)[C@]12CC[C@@H](C)[C@H](C)[C@@H]1C1=CC[C@@H]3[C@@]4(C)CC(=O)[C@H](OC(=O)c5ccco5)[C@@]5(C)COC(=C45)C[C@@]3(C)[C@]1(C)CC2`, for which the GI50 in assay [1] was 0.592 µM; in assay [2], 0.371 µM; in assay [3] it was 6.3 µM; in [4] it was 5.63 µM; in [5], 0.556 µM; in assay [6], 0.413 µM. Also, the GI50 in assay [7] was 0.337 µM; in assay [8], 0.352 µM; in assay [9] it was 30.8 µM; in assay [10], 0.729 µM. Also, the TGI in assay [1], in assay [2], in assay [3], in assay [4], in [5] and in assay [6] was greater than 100 µM each time. The TGI in assay [7] was greater than 100 µM; in [8], 2.93 µM; in [9], greater than 100 µM; in assay [10] it was greater than 100 µM.

In the case of `CC1(C)[C@@H](OC(N)=O)C=C[C@]2(C=O)[C@H]3CC[C@]4(C)[C@@H](c5ccc(=O)oc5)[C@@H](Cl)C[C@]4(O)C3=CC[C@@H]12`, the GI50 was 0.00517 µM in [1]; 0.00566 µM in [2]; 0.00407 µM in [3]; 0.00679 µM in [4]; 0.00525 µM in assay [5]; 0.00668 µM in [6]. Moreover, the GI50 was 0.00409 µM in assay [7], 0.00565 µM in assay [8], 0.00527 µM in assay [9] and 0.00446 µM in assay [10]. For the same compound, the TGI in assay [1] came to 0.0148 µM; in assay [2] it was 0.0154 µM; in assay [3] it was 0.00932 µM; in assay [4], 0.0173 µM; in assay [5] it was 0.0109 µM; in [6], 0.0197 µM. Besides, the TGI in [7] worked out at 0.00818 µM; in assay [8], 0.0141 µM; in assay [9], 0.0157 µM; in [10] it was 0.00846 µM.

With `NS(=O)(=O)c1ccc(NC(=O)Nc2ccccc2F)cc1`, the TGI in [1], in assay [2], in assay [3], in assay [4], in assay [5] and in assay [6] was greater than 100 µM in each case. The TGI in [7], in assay [8], in assay [9] and in assay [10] was greater than 100 µM each time.

On to `O=C(O)C(=O)CBr`, for which the GI50 is > 51.6 µM and 19.5 µM in [1]; > 21.1 µM and 25.8 µM in [2]; > 100 µM and 25.2 µM in assay [3]; > 100 µM and 20 µM in assay [4]; > 41.7 µM and 16.9 µM in assay [5]; > 22.2 µM and 23.8 µM in assay [6]. Besides, the GI50 in assay [7] was > 38.9 µM and 18.5 µM; in assay [8], > 78.3 µM and 18.4 µM; in assay [9], > 39.7 µM and 11.4 µM; in assay [10], > 32.5 µM and 14.7 µM. In addition, the TGI is > 81.7 µM and 37.1 µM in assay [1]; > 64.8 µM and 71.1 µM in assay [2]; > 100 µM and 60.3 µM in assay [3]; > 100 µM and 37.5 µM in assay [4]; > 59.1 µM and 32.5 µM in [5]; > 68.2 µM and 59.1 µM in assay [6]. Also, the TGI was > 54.2 µM and 33.3 µM in assay [7]; > 100 µM and 33.6 µM in assay [8]; > 55.3 µM and 24.6 µM in assay [9]; > 47.3 µM and 28 µM in [10].

For the compound `O=[As]c1ccc(C(=O)c2ccc(Oc3ccccc3)cc2)cc1` (stereo not given), the GI50 is 0.0349 µM in assay [1]; less than 0.0168 µM in assay [2]; 0.0366 µM in assay [3]; 0.118 µM in assay [4]; 0.068 µM in assay [5]; 0.0188 µM in [6]. Further, the GI50 is 0.0415 µM in [7], 0.0431 µM in assay [8], 0.063 µM in assay [9] and 0.0392 µM in assay [10]. Also, the TGI is 0.142 µM in assay [1]; 0.0736 µM in assay [2]; 0.15 µM in assay [3]; 0.287 µM in [4]; 0.271 µM in assay [5]; 0.117 µM in assay [6]. Further, the TGI was 0.152 µM in assay [7], 0.171 µM in assay [8], 0.19 µM in assay [9] and 0.12 µM in [10].

In the case of `O=C1c2ccccc2-c2c1c1ccccc1c(=O)n2-c1ccccc1`, the TGI is greater than 100 µM in [1]; greater than 100 µM in [2]; 37.1 µM in [3]; 50.6 µM in [4]; greater than 100 µM in [5]; greater than 100 µM in assay [6]. Besides, the TGI in assay [7] was 26.8 µM; in [8], greater than 100 µM; in assay [9] it was 27 µM; in [10], 34.7 µM.
